The values that follow come from US20180179256A1 (priority 2015, published 2018).

For the experiment, the system named is HLA-DR. It counts as cell-based, human.

“RGILKRNSSSSSTDS [5-HUMAN-B, reference compound]”: the “% Inhibition by HLA-DR blocking Ab” value is 100%.
